# Results from patent publication US10889546B2, “Alkynyl pyridine prolyl hydroxylase inhibitor, and preparation method and medical use thereof” (Jiangsu Hengrui Medicine Co., Ltd., priority 2015, dated 2021).
# Read-outs that look alike come from different tables or passages of the source.
# Experiments:
# VEGF [1] = experiment: VEGF level at the animal level (VEGF kit); type: in vivo; conditions: C57Bl/6 mice, male, 8-9 weeks old; 50 μM; 24 h / 4 h after administration
# Protocol: (§1) The test of the activity of some compounds of the present invention on VEGF at the animal level and EPO at the cellular level is shown as follows. The method is in accordance with Journal of Medicinal Chemistry 55 (2012) 2945-2959, and the test was carried out by using VEGF and EPO kit respectively 4 h after administration.
# EPO [2] = experiment: EPO expression at the cellular level (EPO kit); type: cell-based; conditions: Hep3B human hepatoma cell, 24 h after administration
# Protocol: as §1, with “cellular” for “animal”, “Bioorganic &” for “Journal of”, “Letters 23 (2013) 5953-5957,” for “55 (2012) 2945-2959,”, “24” for “4”
# (§2) Hep3B Cell: Human Hepatoma Cell
# HIF-α = experiment: Western-blot test of HIF-α level in cells; type: cell-based, human; conditions: Hep3B cell, 50 μM, 250 μM, 24 hours after administration
# Protocol: At the same time, Western-blot test at the cellular level was also carried out for some of the compounds of the present invention.
# FIG. 1 is the results of Western-blot test of some compounds at the cellular level (Hep3B cell: human hepatoma cell; the compound concentration: 50 μM, 250 μM, 24 hours after administration)
# EPO [3] = experiment: EPO level at the animal level (EPO kit); type: in vivo; conditions: C57Bl/6 mice, male, 8-9 weeks old; 50 μM; 24 h / 4 h after administration
# Protocol: as §1
# VEGF [4] = experiment: VEGF expression at the cellular level (VEGF kit); type: cell-based; conditions: Hep3B human hepatoma cell, 24 h after administration
# Protocol: as §1, with “cellular” for “animal”, “Bioorganic &” for “Journal of”, “Letters 23 (2013) 5953-5957,” for “55 (2012) 2945-2959,”, “24” for “4”
# as §2
# Prolyl hydroxylase 2 = Prolyl hydroxylase 2 (Homo sapiens (Human), UniProt Q9GZT9); experiment: Prolyl hydroxylase 2 inhibition, fluorescence polarization method; type: biochemical
# Chain of Prolyl hydroxylase 2 (Q9GZT9 whole entry): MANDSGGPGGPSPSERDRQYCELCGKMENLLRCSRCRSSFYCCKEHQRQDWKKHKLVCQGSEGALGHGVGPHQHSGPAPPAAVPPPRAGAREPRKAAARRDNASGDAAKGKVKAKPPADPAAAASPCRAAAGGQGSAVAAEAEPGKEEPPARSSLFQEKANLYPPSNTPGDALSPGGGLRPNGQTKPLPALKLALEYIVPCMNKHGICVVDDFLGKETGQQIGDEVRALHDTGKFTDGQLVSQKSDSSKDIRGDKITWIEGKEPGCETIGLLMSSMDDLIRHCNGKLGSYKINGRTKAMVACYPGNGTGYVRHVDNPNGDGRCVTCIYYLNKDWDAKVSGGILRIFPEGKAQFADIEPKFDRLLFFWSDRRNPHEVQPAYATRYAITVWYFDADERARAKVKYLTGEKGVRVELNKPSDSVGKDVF
# [5] = fluorescence polarization, read 1 h after adding the drugs, read-out: Prolyl hydroxylase 2 (IC50 nM)
SMILES,increased level of VEGF at the animal level (FIG. 2) (VEGF [1]),Whether it can increase the expression of EPO in cells (EPO [2]),Whether it can increase the level of HIF-α in cells (HIF-α),increased level of EPO at the animal level (FIG. 2) (EPO [3]),Whether it can increase the expression of VEGF in cells (VEGF [4]),IC50 (Prolyl hydroxylase 2; [5]) [nM],"IC50 (Prolyl hydroxylase 2; Table 2 comparison, same test method, same batch, read-out: Prolyl hydroxylase 2 (IC50 nM), example compounds of the present invention) [nM]"
"Cc1cccc(C#Cc2cnc(C(=O)NCC(=O)O)c(O)c2)c1 [Example 14, 2-(3-Hydroxy-5-m-methylphenylethynyl)picolinamido acetic acid]",increased level,Yes,Yes,increased level,Yes,,
"O=C(O)CNC(=O)c1ncc(C#Cc2ccc(F)cc2)cc1O [Example 15, 2-(3-Hydroxy-5-p-fluorophenylethynyl)picolinamido acetic acid]",increased level,Yes,Yes,increased level,Yes,,
"Cc1ccc(OCC#Cc2cnc(C(=O)NCC(=O)O)c(O)c2)cc1 [Example 34, 2-(3-Hydroxy-5-(3-p-tolyloxypropyn-1-yl))picolinamido acetic acid]",,Yes,Yes,,Yes,110 ± 22,
"Cc1cccc(OCC#Cc2cnc(C(=O)NCC(=O)O)c(O)c2)c1C [Example 38, 2-(3-Hydroxy-5-(3-(2,3-dimethylphenyl)oxypropyn-1-yl))picolinamido acetic acid]",,Yes,Yes,,Yes,,
"O=C(O)CNC(=O)c1ncc(C#CCOc2ccc(Cl)cc2)cc1O [Example 44, 2-(3-Hydroxy-5-(3-p-chlorophenoxypropyn-1-yl))picolinamido acetic acid]",,Yes,Yes,,Yes,13.7 ± 1.1,13.7 ± 1.1
"O=C(O)CNC(=O)c1ncc(C#CCOc2ccccc2Cl)cc1O [Example 45, 2-(3-Hydroxy-5-(3-o-chlorophenoxypropyn-1-yl))picolinamido acetic acid]",,Yes,,,Yes,175 ± 2.3,
"O=C(O)CNC(=O)c1ncc(C#CCOc2cccc(Cl)c2)cc1O [Example 46, 2-(3-Hydroxy-5-(3-m-chlorophenoxypropyn-1-yl))picolinamido acetic acid]",,Yes,,,Yes,102 ± 5,
"O=C(O)CNC(=O)c1ncc(C#CCOc2ccc(F)cc2)cc1O [Example 47, 2-(3-Hydroxy-5-(3-p-fluorophenoxypropyn-1-yl))picolinamido acetic acid]",increased level,Yes,,increased level,Yes,187 ± 8.3,
"O=C(O)CNC(=O)c1ncc(C#CCOc2ccc(-c3ccccc3)cc2)cc1O [Example 57, 2-(3-Hydroxy-5-(3-p-phenylphenoxypropyn-1-yl))picolinamido acetic acid]",,Yes,,,Yes,540 ± 3.6,
"O=C(O)CNC(=O)c1ncc(C#CCNc2ccccc2)cc1O [Example 64, 2-(3-Hydroxy-5-(3-anilinopropyn-1-yl))picolinamido acetic acid]",,Yes,,,Yes,326.5 ± 0.8,
O=C(O)CNC(=O)c1ncc(C#CCNc2ccc(Cl)cc2)cc1O [Example 65],,Yes,Yes,,Yes,,
"Cc1nc(C(=O)NCC(=O)O)c(O)c2ccc(Oc3ccccc3)cc12 [FG-4592, reference compound]",increased level,Yes,,increased level,Yes,,
